Assays:
[1] = test system: PC3 cell line; test: PI-positive cell count, prostate cancer cells (IncuCyte); assay type: cell-based, Human; settings: for Number of cells (PI-positive): 24 h post-treatment
Description: (§1) The effect of the compounds according to certain embodiments of the present invention as anti-cancer agents was assessed. Human cancer cells of prostate (PC3 cell line), bladder (T24 cell line), or breast (MDA-MB-231 cell line) cancers were thawed and cultured in suitable media at a final concentration of 3×10^5 cells/mL and tested in triplicates. Following 24 hours of incubation, cells were treated with the tested compounds at 2 μg/ml and 4 μg/ml concentrations or controls (cells were grown in starvation medium and treated with Mitomycin C). Mitomycin C is a potent antineoplastic agent that creates DNA cross-linkage resulting in cell arrest and consequently cell death. It is used to treat various types of cancers such as bladder and breast cancers. In in-vitro models, it acts as a proliferation inhibitor as it induces G0-G1 cell growth arrest. The number of cells in each sample was quantified immediately upon treatment (time-point 0) and every 24 hours until full cell confluency was reached. 24 hours post-treatment, PI (1 μg/ml) was added to the treated cells for 1 hour. Using cell-by-cell analysis (IncuCyte™ cell imager), the PI-positive cells were counted and compared to the relative number of cells in the non-treated (NT) wells.

[2] = test system: Human adrenal cells; test: Steroidogenesis: cortisol secretion by Forskolin-stimulated human adrenal cells (ELISA); assay type: cell-based; settings: 24 h, Forskolin 10 μM
Description: The effect of the compounds according to certain embodiments of the present invention as inhibitors of steroidogenesis was assessed. Human adrenal cells were thawed and cultured in a suitable medium at a final concentration of 5×10^5 cells per mL (performed in triplicates). Following 24 hours of incubation, cells were treated with 10 μM Forskolin. After 48 hours of incubation, cells were treated with controls (1 μM Prochloraz, and 0.2 μg/mL or 1 μg/mL CBD) and compounds according to embodiments of the present invention for 24 hours. Next, supernatants were collected, and the secretion levels of cortisol were measured by ELISA (R&D systems). Optical density was determined by ‘CLARIOStar-plus’® plate-reader. Cortisol concentration (ng/ml) was calculated using a standard curve.

[3] = test system: T24 cell line; test: PI-positive cell count, bladder cancer cells (IncuCyte); assay type: cell-based, Human; settings: for Number of cells (PI-positive): 24 h post-treatment
Description: as §1

[4] = test system: MDA-MB-231 cell line; test: PI-positive cell count, breast cancer cells (IncuCyte); assay type: cell-based, Human; settings: for Number of cells (PI-positive): 24 h post-treatment
Description: as §1

[5] = Breast cancer MDA-MB-231, 2 μg/ml
[6] = Breast cancer MDA-MB-231, 4 μg/ml

| SMILES | % NT (PI-positive cells relative to non-treated) ([1]; Prostate cancer PC3, 2 μg/ml) [%] | Number of cells (PI-positive) ([1]; Prostate cancer PC3, 2 μg/ml) | % NT (PI-positive cells relative to non-treated) ([1]; Prostate cancer PC3, 4 μg/ml) [%] | Number of cells (PI-positive) ([1]; Prostate cancer PC3, 4 μg/ml) | Cortisol ([2]; inhibitor 0.2 μg/mL) [ng/mL] | Cortisol % of Forskolin ([2]; inhibitor 0.2 μg/mL) [%] | Cortisol ([2]; inhibitor 1 μg/mL) [ng/mL] | Cortisol % of Forskolin ([2]; inhibitor 1 μg/mL) [%] | % NT (PI-positive cells relative to non-treated) ([3]; Bladder cancer T24, 2 μg/ml) [%] | Number of cells (PI-positive) ([3]; Bladder cancer T24, 2 μg/ml) | % NT (PI-positive cells relative to non-treated) ([3]; Bladder cancer T24, 4 μg/ml) [%] | Number of cells (PI-positive) ([3]; Bladder cancer T24, 4 μg/ml) | % NT (PI-positive cells relative to non-treated) [4, 5] [%] | Number of cells (PI-positive) [4, 5] | % NT (PI-positive cells relative to non-treated) [4, 6] [%] | Number of cells (PI-positive) [4, 6] |
| --- | --- | --- | --- | --- | --- | --- | --- | --- | --- | --- | --- | --- | --- | --- | --- | --- |
| C=C(C)[C@@H]1CCC(C)=C[C@H]1c1c(O)cc(CCCCC)cc1O [CBD, cannabidiol, reference compound] | 90 | 22.53 | 320 | 80.13 | 101 | 95 | 62 | 58 | 156 | 171.47 | 1794 | 1969.93 | 175 | 89.40 | 1325 | 675.73 |
| CCCCCCc1cc(O)c(C2C=C(C)CCC2C(C)(C)O)c(O)c1 (stereo not drawn) [Formula 1] | 216 | 54.13 | 260 | 65.27 | 37 | 35 | 24 | 22 | – | – | – | – | – | – | – | – |
| CCCCCc1cc(O)c(C2CC(C)CCC2C(C)(C)O)c(O)c1 (stereo not drawn) [Formula 2] | 307 | 76.93 | 363 | 90.93 | 100 | 94 | 77 | 72 | – | – | – | – | – | – | – | – |
| CCCCCCCc1cc(O)c(C2C=C(C)CCC2C(C)(C)O)c(O)c1 (stereo not drawn) [Formula 4] | 228 | 57.27 | 2810 | 704.33 | 38 | 36 | 35 | 32 | 108 | 118.20 | 703 | 771.60 | 120 | 61.07 | 1417 | 722.47 |
| CCCCCCC(C)(C)c1cc(O)c(C2C=C(C)CCC2C(C)(C)O)c(O)c1 (stereo not drawn) [Formula 7] | 326 | 81.80 | 4139 | 1037.53 | 39 | 37 | 47 | 44 | 429 | 470.67 | 1156 | 1269.33 | 277 | 141.47 | 2197 | 1120.53 |
| CCCCCc1cc(O)c(C2C=C(C)CCC2C(C)(C)O)c(O)c1C(=O)OC (stereo not drawn) [Formula 12] | 215 | 53.93 | 390 | 97.80 | 43 | 41 | 45 | 42 | – | – | – | – | – | – | – | – |
| CCCCCc1cc(O)c(C2C=C(C)CCC2C(C)(C)O)c(O)c1C(=O)NCCCN1CCOCC1 (stereo not drawn) [Formula 14] | – | – | – | – | 41 | 39 | 45 | 42 | – | – | – | – | – | – | – | – |
| CCCN(CCOc1c(Cl)cc(Cl)cc1Cl)C(=O)n1ccnc1 [Prochloraz, reference compound] | – | – | – | – | – | – | 23 | 22 | – | – | – | – | – | – | – | – |

Source: patent US20250236578A1, “NOVEL CANNABINOID DERIVATIVES” (CANNASOUL ANALYTICS LTD., priority 2021, published 2025)
